Test results from patent US20210108199A1, “Treatment for aggressive cancers by targeting C9ORF72” (The Trustees of Columbia University in the City of New York, priority 2017, published 2021).

Columns and labels:
U87 cells = test: ROS detection by dihydroethidium; assay type: cell-based; conditions: day three
Description: ROS detection in U87 cells was performed using 2′,7′-dichlorofluorescin diacetate (Sigma™, D883). Cells were treated with control and siC9 siRNA. After 3 days, cells were washed with phenol red-free DMEM (ThermoFisher™, 21063029). Cells then were incubated with 20 μM DCFDA for 40 minutes at 37° C. Cells then were washed with phenol red-free DMEM. Then signal was read at Ex/Em: 485/535 nm using Synergy H1 Hybrid™ Multi-Mode Microplate reader by Biotek™. Quantitation was done after removal of background. Additionally, dihydroethidium (EMD Millipore™ 309800) was used. U87 cells were treated as described above. At day 3, cells were incubated with DHE for 30 minutes at 37° C. […]
For the above reasons, whether C9 KD may lead to increase ROS production was investigated. […] C9 was knocked down in U87 cells with two independent siRNAs and the ROS levels were measured after KD. […]
For the data presented in FIG. 21, U87 cells were treated with control (siCtrl) and C9 (siC9; SEQ ID NO:631) siRNA and on day three ROS levels measured by DCFDA and dihydroethidium. FIG. 21A presents data for fluorescent intensity between control (siCtrl) and C9 KD (siC9) cells as measured by DCFDA. […] FIG. 21C presents fluorescent intensity quantitation for about 30 cells from the dihydroethidium experiments (n=3). Statistical significance was assessed by an unpaired t-test: NS P>0.05, *P≤0.05, **P≤0.01, ***P≤0.001 ****P≤0.0001. […]

p53 target genes = test: qRT-PCR of p53 target genes; assay type: cell-based; conditions: U87 cells
Description: For most RNA experiments, RNA was isolated from cells using the Qiagen™ RNeasy minikit. Complementary DNA was generated using the Qiagen™ Quantitect™ reverse transcription kit with 0.5 μg of input RNA as measured with a NanoDrop spectrophotometer (Thermo Scientific™). Real-time PCR was carried out on an ABI StepOne Plus™ machine using power SYBR Green dye (Thermo Scientific™). Transcript levels were assayed in triplicate and normalized to RPL32 and HPS90 mRNAs. Relative changes in cDNA levels were calculated using the comparative Ct method (ΔΔCT method). All RT-qPCR primers were designed with Primer3Plus™ or retrieved from Primerbank™. Primer sequences are listed here, including in Table 3. All primers were purchased from Life Technologies™. H. Generation of p53 Knock Out U87 Cell Lines by CRISPR
This also is consistent with p53 activation. FIG. 27 presents RT-qPCR analysis of C9ORF72, CDKN1A (p21), NOXA, PUMA, GLUT1, MDM2 and GLUT3 mRNA levels in U87 cells treated with control (siCtrl) and C9 (siC9; SEQ ID NO:631) siRNA. These studies were performed using three biological replicates (n=3); error bars represent S.E.M. Statistical significance was assessed by an unpaired t-test: NS P>0.05, *P≤0.05, **P≤0.01, ***P≤0.001 ****P≤0.0001.

U2OS cells = test: Western blot of U2OS cells after C9 KD; assay type: cell-based, human
Description: For Western blot analysis, cells were lysed with lysis buffer (20 mM sodium phosphate (pH 7.0), 250 mM NaCl, 30 mM sodium pyrophosphate, 0.1% Nonidet™ P-40, 5 mM EDTA, 10 mM NaF, 0.1 mM Na3VO4, and 1 mM PMSF) supplemented with complete protease inhibitors (Roche™) and homogenized by passage through a 28 gauge needle. Protein concentration was measured with a Bio-Rad™ protein assay dye reagent and results were read using a spectrophotometer (BiophotometerPlus™ by Eppendorf™). Protein extracts were resolved by SDS PAGE on gradient (Thermo Fisher™) or 12% gels. Proteins were then electrotransferred at 350 mA for 80 minutes onto a PVDF membrane (Immobilon-P PVDF). Membranes were blocked with PBST with 5% milk and 1% BSA for 30 minutes. Quantitation of blots was performed Image Studio Lite software (LI-COR Biosciences™).
See FIG. 28, a WB of U2OS cells treated with control and C9 siRNA and probed for PARP1, p-p53 (s15), p53, p-ERK, p21, p-H2AX, using actin as a loading control.

cortical neurons = test: C9 knockdown in neurons and live imaging of mitochondria; assay type: cell-based; conditions: rat-derived cortical neurons
Description: Cortices from E19 embryonic brains from pregnant Sprague-Dawley female rats were dissected in ice-cold HBSS (ThermoFisher™ Scientific #24020117), supplemented with 10 mM HEPES (pH 7.4), 10 mM MgCl2, 1% P/S and 0.5 mM L-glutamine. The hippocampal tissue was discarded and only the cortical tissue was trypsinized for 15 minutes at 37° C. in a water bath and resuspended in DMEM with 10% FBS and 1% P/S. The dissociated neurons were subjected to centrifugation to remove debris, counted and plated onto MatTek™ 35 mm or 50 mm glass bottom dishes pre-coated with Poly-L-Lysine (1 mg/mL) and Laminin, at a density of 100,000 for live imaging experiments. After about 12-15 hours, the medium was changed to Neurobasal medium supplemented with 0.5 mM L-Glutamine, B-27 serum free supplement (Gibco™) and 1% P/S. Media were changed every 2-3 days.
Day 7 cortical neurons were transfected with 80 nM C9orf72 siRNA and 40 ng CMV-GFP vector using a magnetofectamine kit (OZ Biosciences™ #MTX0750). […]

Substance: siC9: siRNA targeting C9 mRNA: UUAAUGAAACAAUAAUCACUC (SEQ ID NO:631; sense) and GUGAUUAUUGUUUCAUUAAUC (SEQ ID NO:632; antisense) (listed as RNA, chemistry not given here)
- ROS (dihydroethidium) (U87 cells): significant upregulation of ROS
- mRNA levels of p53 target genes (p21, MDM2, NOXA, PUMA) (p53 target genes): elevated
- mRNA levels of repression targets (GLUT1 and GLUT3) (p53 target genes): lower mRNA levels
- CDKN1A/p21 protein levels (U2OS cells): increase in CDKN1A/p21 protein levels
- PARP1 level (U2OS cells): PARP1 downregulation
- p53 levels (U2OS cells): increased p53 levels
- p-ERK (U2OS cells): increases in p-ERK
- phosphorylated p53 (on s15) (U2OS cells): increases in phosphorylated p53
- γ-H2AX (U2OS cells): increases
- mitochondria motility (cortical neurons): significantly reduced
- mitochondria accumulation (cortical neurons; dendrites): induced mitochondria accumulation in the dendrites
